# Activity calls are given as the source filed them. The calls are words filed in the database; no cut-off is given here.
# How the values were obtained:
# Streptococcus sp. [1] = assay: Antimicrobial activity against Group D Streptococcus sp. clinical isolates expressing erm(T) gene by Etest; type: functional
# Streptococcus sp. [2] = assay: Antimicrobial activity against Group D Streptococcus sp. clinical isolates assessed as resistant isolates; type: functional
# Enterococcus faecium [3] = assay: Antimicrobial activity against Group D Enterococcus faecium clinical isolate expressing erm(B) and erm(T) genes by disk diffusion method; type: functional, organism-based
# Enterococcus faecalis = assay: Antimicrobial activity against Group D Enterococcus faecalis clinical isolate expressing erm(B) gene by disk diffusion method; type: functional, organism-based
# Streptococcus sp. [4] = assay: Antimicrobial activity against erythromycin-resistant Group D Streptococcus sp. clinical isolates expressing erm(T) gene by Etest; type: functional
# Enterococcus faecium [5] = assay: Antimicrobial activity against Group D Enterococcus faecium clinical isolate expressing erm(B) gene by disk diffusion method; type: functional, organism-based
SMILES,MIC (Streptococcus sp. [1]) [µg/mL],Activity (Streptococcus sp. [2]) [%],Activity (Enterococcus faecium [3]),Activity (Enterococcus faecalis),MIC (Streptococcus sp. [4]) [µg/mL],Activity (Enterococcus faecium [5])
CCC[C@@H]1C[C@@H](C(=O)N[C@@H]([C@H]2O[C@H](SC)[C@H](O)[C@@H](O)[C@H]2O)[C@H](C)Cl)N(C)C1 [CLINDAMYCIN],0.125,33,–,–,–,–
CC[C@H]1OC(=O)[C@H](C)[C@@H](O[C@H]2C[C@@](C)(OC)[C@@H](O)[C@H](C)O2)[C@H](C)[C@@H](O[C@@H]2O[C@H](C)C[C@H](N(C)C)[C@H]2O)[C@](C)(O)C[C@@H](C)C(=O)[C@H](C)[C@@H](O)[C@]1(C)O [ERYTHROMYCIN],0.064,54,inactive,inactive,≥ 256,inactive

# — ChEMBL document CHEMBL1255321, “Prevalence of the erm(T) gene in clinical isolates of erythromycin-resistant group D Streptococcus and Enterococcus” (2008)
